Source: article PMC5048182, “Structure and specificity of the Type VI secretion system ClpV-TssC interaction in enteroaggregative Escherichia coli” (Scientific Reports, 2016)
“Also recorded” adds a separate entry of the source.

System: ClpV1-Nt (ClpV1 N-terminal domain)
Experiment: Microscale thermophoresis (MST), binding of TssC N-terminal peptides to ClpV1-Nt
Parameters: species or system enteroaggregative Escherichia coli
Conditions: 200 nM labeled ClpV1-Nt vs up to 500 μM peptide, 25 mM Tris-HCl pH 7.5, 200 mM NaCl, glycerol 5%, 0.05% Tween-20, triplicate
Protocol: E. coli BL21 (DE3) pLysS cells carrying the pETG20A-ClpV1-Nt plasmid were grown at 37 °C in TB medium (1.2% peptone, 2.4% yeast extract, 72 mM K2HPO4, 17 mM KH2PO4, and 0.4% glycerol). Expression of clpV1-Nt was induced at A600 = 0.6 with 0.5 mM IPTG for 18 hours at 25 °C. Cells were then resuspended in lysis buffer (50 mM Tris-HCl pH 8.0, 300 mM NaCl, 1 mM EDTA, 0.5 mg/mL lysozyme, 1mM phenylmethylsulfonyl fluoride), submitted to several freeze-thawing cycles and sonicated after the addition of 20 μg/mL DNase and 20 mM MgCl2. Pellet and soluble fraction were separated by centrifugation for 30 min at 16,000 × g. The soluble fraction containing ClpV1-Nt was loaded onto a 5-mL Ni^2+ affinity column (HisTrap™ FF) using an ÄKTA Explorer apparatus (GE healthcare) and the immobilized proteins were eluted in 50 mM Tris-HCl pH8.0, 300 mM NaCl supplemented with 250 mM imidazole. The protein solution was desalted on a HiPrep 26/10 column (Sephadex^TM G-25, Amersham Biosciences), and ClpV1-Nt was obtained by cleavage using 2 mg of TEV protease for 18 hours at 4 °C and collected in the flow-through of a 5-mL Nickel column. The protein was concentrated using the centricon technology (Millipore, 10-kDa cut-off). […]
Microscale thermophoresis experiments were performed using a Monolith NT.115 apparatus (NanoTemper). […] Each data point was measured in triplicate. […]

Sequence: ATDDCLEEIINNTRA [TssC2 peptide, TssC2 (residues 15–29), […], synthesized by Genscript]
- binding to ClpV1-Nt (in words): no binding; also recorded: no interaction
